Source: PubChem BioAssay (NCI)
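These data come from cells grown in 96-well plates and exposed to compound for 48 hours at five concentrations. GI50: concentration for 50% inhibition of growth. At the TGI there is no net growth.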

Key:
Experiment in all cases: NCI-60 cell line screen, 48 h
UACC-257 melanoma = tested on: UACC-257 melanoma
NCI/ADR-RES ovarian = tested on: NCI/ADR-RES ovarian
LOX IMVI melanoma = tested on: LOX IMVI melanoma
CCRF-CEM leukemia = tested on: CCRF-CEM leukemia
EKVX NSCLC = tested on: EKVX NSCLC
SF-268 CNS = tested on: SF-268 CNS
KM12 colon = tested on: KM12 colon
DU-145 prostate = tested on: DU-145 prostate
SK-MEL-28 melanoma = tested on: SK-MEL-28 melanoma
HCT-116 colon = tested on: HCT-116 colon

Row | Structure (SMILES) | GI50 (UACC-257 melanoma) [µM] | TGI (UACC-257 melanoma) [µM] | GI50 (NCI/ADR-RES ovarian) [µM] | TGI (NCI/ADR-RES ovarian) [µM] | GI50 (LOX IMVI melanoma) [µM] | TGI (LOX IMVI melanoma) [µM] | GI50 (CCRF-CEM leukemia) [µM] | TGI (CCRF-CEM leukemia) [µM] | GI50 (EKVX NSCLC) [µM] | TGI (EKVX NSCLC) [µM] | GI50 (SF-268 CNS) [µM] | TGI (SF-268 CNS) [µM] | GI50 (KM12 colon) [µM] | TGI (KM12 colon) [µM] | GI50 (DU-145 prostate) [µM] | TGI (DU-145 prostate) [µM] | GI50 (SK-MEL-28 melanoma) [µM] | TGI (SK-MEL-28 melanoma) [µM] | GI50 (HCT-116 colon) [µM] | TGI (HCT-116 colon) [µM]
1 | Cc1ccc(-c2cc(/C=N/O)on2)cc1 | 67.5 | > 100 | 45.4 | > 100 | 53.3 | > 100 | 46.9 | > 100 | 43.3 | > 100 | > 100 | > 100 | 35.6 | > 100 | 68.7 | > 100 | > 100 | > 100 | 71.4 | > 100
2 | CNCCOc1nc2c3cnccc3cc(-c3cc(OC)c(OC)c(OC)c3)c2c2ccncc12 | 0.13 | 0.728 | 0.344 | 2.09 | 0.0131 | 0.0944 | < 0.013 | 1.1 | 0.0782 | 0.432 | 0.033 | 0.623 | 0.0536 | 2.52 | 0.022 | 0.167 | 0.125 | 0.525 | < 0.0147 | 0.175
3 | COc1cc2c3c(c1O)C1(C=CC(=O)C=C1)CC3N(C)CC2 (stereo not given) |  | 27.7 |  | 11 |  | 9.28 |  | 13.8 |  | 25.6 |  | 34.6 |  | 17.5 |  | 26 |  | 26 |  | 14.5
4 | CCCCCCC1N=C(N)N=C(N)N1c1ccc(Cl)cc1 (stereo not given) | 13 | 68.8 | > 100 | > 100 | 3.87 | 14.7 | 4.67 | 81.3 | 8.7 | 45.4 | 3.78 | 21.7 | 10.4 | 22.9 | 12.1 | > 100 | 8.66 | 21.8 | 3.2 | 15.8
5 | C=C1CO[C@@H]2C[C@@H]1CC/C(C)=C/CC/C(C)=C/CC[C@@]2(C)O | 16.8 | 39.1 | 18.5 | 36 | 2.25 | 21.4 | 14.7 | 33.9 | 22.4 | 45.2 | 20.1 | 50.5 | 17.4 | 36 | 18.5 | 38.3 | 16.8 | 38.3 | 17.2 | 31.4
6 | c1cnc2c(c1)Nc1cnncc1S2 |  | > 100 |  | > 100 |  | > 100 |  | > 100 |  | > 100 |  | > 100 |  | > 100 |  | > 100 |  | > 100 |  | > 100
7 | NC(=O)NC(=O)C1CCCCC1C(=O)O (stereo not given) |  | > 100 |  | > 100 |  | > 100 |  | > 100 |  | > 100 |  | > 100 |  | > 100 |  | > 100 |  | > 100 |  | > 100
